Tests used:
[1] = system: Trichophyton rubrum; test: Methylene blue phototherapy of infected nail pieces, ex vivo; type: cell-based; set-up: key to Fungal growth on nail pieces after treatment: “G” indicates growth; “N” indicates no growth
Protocol: Sterilized nail pieces were placed on fresh T.rubrum lawn to be infected for at least 10 days with dorsal side upwards. […] Control was carrier solution with no Methylene blue. […] The nails were exposed to red light (640 nm, 9 W—3 LED lights, 3 W each) for 30 min. Amount of viable fungal colonies of Trichophyton rubrum after treatment relative to control was observed using microscope and once visual continued to be monitored with the naked eye. Results are shown in Table 2, where “G” indicates growth and “N” indicates no growth. […] After 5 days mycelium growth was found for the 0.0625% and 0.03125% treatments. After 6 days of the treatment mycelium was found for the 0.125% treatments. […] Meaning that there is a need for a secondary treatment or alternative treatment in order to obtain prolonged inhibition of re-growth.

[2] = system: C. albicans; details: low curcumin concentrations, planktonic and biofilm form; cited from earlier work

For `CN(C)c1ccc2nc3ccc(=[N+](C)C)cc-3sc2c1` [MB, Methylene blue], the “Fungal growth on nail pieces after treatment” value (shortened to “Fungal growth on nail pieces”) ([1]; 0.03% MB in carrier, red light 640 nm 30 min, Day 3) was “N”, the “Fungal growth on nail pieces” value ([1]; 0.03% MB in carrier, red light 640 nm 30 min, Day 4) was “N” and the “Fungal growth on nail pieces” value ([1]; 0.03% MB in carrier, red light 640 nm 30 min, Day 6) was “G”. For the same molecule, the “Fungal growth on nail pieces” value ([1]; 0.03% MB in carrier, red light 640 nm 30 min, Day 7) was “G”, the “Fungal growth on nail pieces” value ([1]; 0.03% MB in carrier, red light 640 nm 30 min, Day 8) was “G” and the “Fungal growth on nail pieces” value ([1]; 0.03% MB in carrier, red light 640 nm 30 min, Day 9) was “G”. For the same molecule, the “Fungal growth on nail pieces” value ([1]; 0.03% MB in carrier, red light 640 nm 30 min, Day 10) was “G”, the “Fungal growth on nail pieces” value ([1]; 0.03% MB in carrier, red light 640 nm 30 min, Day 12) was “G” and the “Fungal growth on nail pieces” value ([1]; 0.03% MB in carrier, red light 640 nm 30 min, Day 13) was “G”. The “Days after treatment at which mycelium growth was found” value ([1]; 0.03125% MB, red light 640 nm 30 min) was 5 days, the “Fungal growth on nail pieces” value ([1]; 0.0625% MB in carrier, red light 640 nm 30 min, Day 3) was “N” and the “Fungal growth on nail pieces” value ([1]; 0.0625% MB in carrier, red light 640 nm 30 min, Day 4) was “N”. For the same molecule, the “Fungal growth on nail pieces” value ([1]; 0.0625% MB in carrier, red light 640 nm 30 min, Day 6) was “G”, the “Fungal growth on nail pieces” value ([1]; 0.0625% MB in carrier, red light 640 nm 30 min, Day 7) was “G” and the “Fungal growth on nail pieces” value ([1]; 0.0625% MB in carrier, red light 640 nm 30 min, Day 8) was “G”. For the same molecule, the “Fungal growth on nail pieces” value ([1]; 0.0625% MB in carrier, red light 640 nm 30 min, Day 9) was “G”, the “Fungal growth on nail pieces” value ([1]; 0.0625% MB in carrier, red light 640 nm 30 min, Day 10) was “G” and the “Fungal growth on nail pieces” value ([1]; 0.0625% MB in carrier, red light 640 nm 30 min, Day 12) was “G”. For the same molecule, the “Fungal growth on nail pieces” value ([1]; 0.0625% MB in carrier, red light 640 nm 30 min, Day 13) was “G”, the “Days after treatment at which mycelium growth was found” value ([1]; 0.0625% MB, red light 640 nm 30 min) was 5 days and the “Fungal growth on nail pieces” value ([1]; 0.125% MB in carrier, red light 640 nm 30 min, Day 3) was “N”. The “Fungal growth on nail pieces” value ([1]; 0.125% MB in carrier, red light 640 nm 30 min, Day 4) was “N”, the “Fungal growth on nail pieces” value ([1]; 0.125% MB in carrier, red light 640 nm 30 min, Day 6) was “N” and the “Fungal growth on nail pieces” value ([1]; 0.125% MB in carrier, red light 640 nm 30 min, Day 7) was “G”. For the same molecule, the “Fungal growth on nail pieces” value ([1]; 0.125% MB in carrier, red light 640 nm 30 min, Day 8) was “G”, the “Fungal growth on nail pieces” value ([1]; 0.125% MB in carrier, red light 640 nm 30 min, Day 9) was “G” and the “Fungal growth on nail pieces” value ([1]; 0.125% MB in carrier, red light 640 nm 30 min, Day 10) was “G”. For the same molecule, the “Fungal growth on nail pieces” value ([1]; 0.125% MB in carrier, red light 640 nm 30 min, Day 12) was “G”, the “Fungal growth on nail pieces” value ([1]; 0.125% MB in carrier, red light 640 nm 30 min, Day 13) was “G” and the “Days after treatment at which mycelium growth was found” value ([1]; 0.125% MB, red light 640 nm 30 min) was 6 days. For the same molecule, the “Fungal growth on nail pieces” value ([1]; 0.25% MB in carrier, red light 640 nm 30 min, Day 3) was “N”, the “Fungal growth on nail pieces” value ([1]; 0.25% MB in carrier, red light 640 nm 30 min, Day 4) was “N” and the “Fungal growth on nail pieces” value ([1]; 0.25% MB in carrier, red light 640 nm 30 min, Day 6) was “N”. For the same molecule, the “Fungal growth on nail pieces” value ([1]; 0.25% MB in carrier, red light 640 nm 30 min, Day 7) was “N”, the “Fungal growth on nail pieces” value ([1]; 0.25% MB in carrier, red light 640 nm 30 min, Day 8) was “N” and the “Fungal growth on nail pieces” value ([1]; 0.25% MB in carrier, red light 640 nm 30 min, Day 9) was “N”. For the same molecule, the “Fungal growth on nail pieces” value ([1]; 0.25% MB in carrier, red light 640 nm 30 min, Day 10) was “N”, the “Fungal growth on nail pieces” value ([1]; 0.25% MB in carrier, red light 640 nm 30 min, Day 12) was “N” and the “Fungal growth on nail pieces” value ([1]; 0.25% MB in carrier, red light 640 nm 30 min, Day 13) was “G”. For the same molecule, the “Days after treatment at which growth was found” value ([1]; 0.25% MB, red light 640 nm 30 min) was 12 days and the “Effect on fungus growth” value ([1]; MB alone (without light), separate experiment) was “did not kill nor inhibit”.
For `COc1cc(/C=C/C(=O)CC(=O)/C=C/c2ccc(O)c(OC)c2)ccc1O` [curcumin, diferuloylmethane], the “photoinactivating C. albicans” value [2] is listed as “highly effective”.

From patent US20210046137A1, “ANTIMICROBIAL PHOTOSENSITIZER COMPOSITION AND METHOD” (ToeFX Inc., priority 2018, published 2021)
